Experimental data as given in article PMC11945486, “TAS1R2/TAS1R3 Single-Nucleotide Polymorphisms Affect Sweet Taste Receptor Activation by Sweeteners: The SWEET Project” (Nutrients, 2025).
Where two headings read alike, the source gives them in different places. One block for each molecule: values may come before it. No end group written: not given here.

Biological target: T1, human TAS1R2-WT/TAS1R3-F749S (Homo sapiens, UniProt Q7RTX0+Q8TE23, F749S)
T1 construct: expressed in transfected cells; host or cells: HEK293T stably expressing Gα16gust44
T1 sequence (Q8TE23 20-839): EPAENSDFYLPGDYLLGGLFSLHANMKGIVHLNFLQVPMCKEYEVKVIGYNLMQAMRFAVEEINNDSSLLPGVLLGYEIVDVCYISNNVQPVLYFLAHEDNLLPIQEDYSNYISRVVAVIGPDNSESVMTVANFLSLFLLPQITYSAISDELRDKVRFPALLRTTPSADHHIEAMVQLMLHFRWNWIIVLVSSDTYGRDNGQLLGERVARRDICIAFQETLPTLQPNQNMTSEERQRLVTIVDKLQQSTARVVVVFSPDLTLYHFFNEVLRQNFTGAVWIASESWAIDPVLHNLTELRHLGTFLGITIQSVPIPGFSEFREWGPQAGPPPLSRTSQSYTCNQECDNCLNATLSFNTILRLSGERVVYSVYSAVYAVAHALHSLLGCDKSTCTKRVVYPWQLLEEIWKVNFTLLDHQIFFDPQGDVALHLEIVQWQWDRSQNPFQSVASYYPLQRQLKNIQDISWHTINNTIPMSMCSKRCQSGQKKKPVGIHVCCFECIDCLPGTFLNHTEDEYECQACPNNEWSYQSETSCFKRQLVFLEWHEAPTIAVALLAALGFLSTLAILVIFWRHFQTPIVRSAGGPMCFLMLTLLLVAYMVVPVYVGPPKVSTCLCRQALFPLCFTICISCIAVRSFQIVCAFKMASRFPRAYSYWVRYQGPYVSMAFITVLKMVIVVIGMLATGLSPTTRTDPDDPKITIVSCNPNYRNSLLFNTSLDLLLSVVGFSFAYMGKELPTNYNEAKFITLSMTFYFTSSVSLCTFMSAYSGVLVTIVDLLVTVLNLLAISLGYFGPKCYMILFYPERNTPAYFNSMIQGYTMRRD
T1 sequence (Q7RTX0 21-852 F749S): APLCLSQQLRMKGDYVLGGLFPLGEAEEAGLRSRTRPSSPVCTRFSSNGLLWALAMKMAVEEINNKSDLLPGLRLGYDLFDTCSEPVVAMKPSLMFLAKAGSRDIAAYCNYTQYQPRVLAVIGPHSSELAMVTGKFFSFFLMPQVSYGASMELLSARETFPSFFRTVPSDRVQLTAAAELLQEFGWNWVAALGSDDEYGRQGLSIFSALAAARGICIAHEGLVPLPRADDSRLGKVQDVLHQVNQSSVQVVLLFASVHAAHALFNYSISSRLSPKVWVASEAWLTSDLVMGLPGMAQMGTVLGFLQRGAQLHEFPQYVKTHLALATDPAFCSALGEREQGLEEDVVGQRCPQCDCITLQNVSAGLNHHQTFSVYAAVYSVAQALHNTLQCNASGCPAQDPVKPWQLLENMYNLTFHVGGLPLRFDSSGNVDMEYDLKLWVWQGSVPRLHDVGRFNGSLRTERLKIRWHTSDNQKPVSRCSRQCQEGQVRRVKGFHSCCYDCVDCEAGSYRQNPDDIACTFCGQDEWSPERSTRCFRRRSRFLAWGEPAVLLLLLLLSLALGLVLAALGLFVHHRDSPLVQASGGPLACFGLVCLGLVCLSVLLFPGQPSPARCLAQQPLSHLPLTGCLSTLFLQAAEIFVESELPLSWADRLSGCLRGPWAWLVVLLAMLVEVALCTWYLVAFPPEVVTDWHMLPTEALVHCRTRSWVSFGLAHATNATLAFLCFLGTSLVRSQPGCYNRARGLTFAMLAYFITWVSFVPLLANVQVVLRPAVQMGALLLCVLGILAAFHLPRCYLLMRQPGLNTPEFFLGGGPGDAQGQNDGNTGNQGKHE
Assay: Calcium mobilisation assay, TAS1R2-WT with TAS1R3 variant F749S
Assay type: cell-based
Settings: for Max ΔF/F0: maximal signal amplitude
Text: The coding sequences for TAS1R2 and TAS1R3 were commercially synthesised, and the human codon was optimised for expression in human cells. The coding sequences of human TAS1R2 and TAS1R3 were subcloned and inserted into the mammalian expression vectors pcDNA6/myc-HisA and pcDNA4/myc-HisA (Invitrogen; Thermo Fisher Scientific; Illkirch, France) between the EcoRI and NotI restriction sites, generating the plasmids pcDNA6-TAS1R2 and pcDNA4-TAS1R3, respectively. To increase protein expression in mammalian cells, an upstream start codon was used, which was a sequence called MAX, corresponding to the QBI SP163 element also described in pcDNA4-HisMax (Invitrogen; Thermo Fisher Scientific; Illkirch, France). To measure the expression level of the receptor by immunohistochemistry, we used the FLAG sequence ([…]) in the C-terminal position, which encodes the FLAG tag epitope. SNP variants of TAS1R2 and TAS1R3 were constructed based on […], respectively, using site-directed mutagenesis (Genewiz; Leipzig, Germany).
The HEK293T cells were kindly provided by Jay P. Slack (Givaudan Flavors Corporation; Cincinnati, OH, USA). HEK293T cells stably transfected with Gα16gust44 [43, 67] were seeded in poly-D-lysine-coated clear-bottom black 96-well plates (0.35 × 10^5 cells/well) in high-glucose DMEM supplemented with 2 mM GlutaMAX, 10% dialysed foetal bovine serum with penicillin/streptomycin and G418 (400 μg/mL) at 37 °C and 6.3% CO2 in a humidified atmosphere as previously reported. […] As a negative control, HEK293T cells were mock-transfected with the empty expression vector. After a further 24 h of incubation, the HEK293T cells were washed with C1 buffer (130 mM NaCl, 5 mM KCl, 10 mM HEPES pH 7.4 and 2 mM CaCl2). The 96-well plates containing the cells were then stimulated with sweet-tasting compounds. […] Different concentration ranges were tested depending on the sweet compound injected. The Ca^2+ changes were expressed as fractional changes in fluorescent light intensity: ΔF/F = (F − F0)/F0, where F was the fluorescent light intensity at each point, and F0 was the value of emitted fluorescent light prior to stimulus application. To calculate dose–response relationships, the changes in fluorescence upon stimulus application were averaged, mock-subtracted and baseline-corrected. The dose–response data obtained were adjusted using a 4-parameter logistic equation. The half-maximal effective concentrations (EC50 values) and maximal signal amplitudes were calculated using SigmaPlot software (version 15.0) (Systat Software; San Jose, CA, USA).
For in vitro calcium mobilisation assay performed on hTAS1R2-SNPs, hTAS1R3-SNPs and mTAS1R3-I60T, 6 to 7 concentrations were tested for each sweet compound, plus buffer alone. All concentration–receptor combinations were measured in duplicate, and each experiment was repeated at least 4 times (8 wells/concentration). Results were expressed for each concentration as ΔF/F mean ± SEM and represented as dose–response curves.

R1 = Variant EC50/WT EC50: 0.9
Max ΔF/F0: 1.90 ± 0.30
EC50 (read-out: EC50): 12.1 ± 6.1 µM
Molecule: C=C(C)[C@@H]1CC=C(/C=N/O)CC1 [Perillartine, perillartine]

R1 = Variant EC50/WT EC50: 1.8
Max ΔF/F0: 0.54 ± 0.03
EC50 (read-out: EC50): 71.8 ± 9.6 µM
Molecule: C=C1C[C@@]23CC[C@H]4[C@@](C)(CCC[C@@]4(C)C(=O)O[C@@H]4O[C@H](CO)[C@@H](O)[C@H](O[C@@H]5O[C@H](CO)[C@@H](O)[C@H](O)[C@H]5O)[C@H]4O[C@@H]4O[C@H](CO)[C@@H](O)[C@H](O)[C@H]4O)[C@@H]2CC[C@]1(O[C@@H]1O[C@H](CO)[C@@H](O)[C@H](O[C@@H]2O[C@H](CO)[C@@H](O)[C@H](O)[C@H]2O)[C@H]1O[C@@H]1O[C@H](CO)[C@@H](O)[C@H](O)[C@H]1O)C3 [Rebaudioside M, rebaudioside M]

R1 = Variant EC50/WT EC50: 2.3
Max ΔF/F0: 0.18 ± 0.01
EC50 (read-out: EC50): 252 ± 36 µM
Molecule: OC[C@H]1O[C@H](O[C@]2(CCl)O[C@H](CCl)[C@@H](O)[C@@H]2O)[C@H](O)[C@@H](O)[C@H]1Cl [Sucralose]

R1 = Variant EC50/WT EC50: 1.9
EC50 (brazzein): 212.2 ± 8.6 µg/mL
Max ΔF/F0: 0.65 ± 0.01
Molecule: brazzein (QDKCKKVYENYPVSKCQLANQCNYDCKLDKHARSGECFYDEKRNLQCICDYCEY; ends and bridges not checked; cysteine pairing not given here; UniProt P56552 1-54, looked up) [sweet-tasting protein obtained by recombinant production using the yeast Pichia pastoris]

R1 = Variant EC50/WT EC50: 3.0
Max ΔF/F0: 0.42 ± 0.03
Molecule: thaumatin

EC50 (read-out: EC50): 31.2 ± 3.5 µM
B1: thaumatin (protein)
chain: ATFEIVNRCSYTVWAAASKGDAALDAGGRQLNSGESWTINVEPGTKGGKIWARTDCYFDDSGSGICKTGDCGGLLRCKRFGRPPTTLAEFSLNQYGKDYIDISNIKGFNVPMDFSPTTRGCRGVRCAADIVGQCPAKLKAPGGGCNDACTVFQTSEYCCTTGKCGPTEYSRFFKRLCPDAFSYVLDKPTTVTCPGSSNYRVTFCPTA
modifications: Eight disulfides
notes: sweet-tasting plant protein, E957

Further lines, the molecule ahead of its results:

Molecule: CC1=CC(=O)NS(=O)(=O)O1 [Acesulfame K, acesulfame K]
R1 = Variant EC50/WT EC50: 0.7
Max ΔF/F0: 0.04 ± 0.01
EC50 (read-out: EC50): 410 ± 242 µM

Molecule: O=S(=O)(O)NC1CCCCC1 [Cyclamate, cyclamate]
EC50 (read-out: EC50): 3430 ± 1990 µM

Molecule: C[C@H](CC[C@@H](O[C@@H]1O[C@H](CO[C@@H]2O[C@H](CO)[C@@H](O)[C@H](O)[C@H]2O)[C@@H](O)[C@H](O)[C@H]1O[C@@H]1O[C@H](CO)[C@@H](O)[C@H](O)[C@H]1O)C(C)(C)O)[C@H]1CC[C@@]2(C)[C@@H]3CC=C4[C@@H](CC[C@H](O[C@@H]5O[C@H](CO[C@@H]6O[C@H](CO)[C@@H](O)[C@H](O)[C@H]6O)[C@@H](O)[C@H](O)[C@H]5O)C4(C)C)[C@]3(C)[C@H](O)C[C@]12C [Mogroside V, mogroside V]
R1 = Variant EC50/WT EC50: 2.1
Max ΔF/F0: 0.47 ± 0.02
EC50 (read-out: EC50): 65.5 ± 5.4 µM

Molecule: COc1ccc(CCC(=O)c2c(O)cc(O[C@@H]3O[C@H](CO)[C@@H](O)[C@H](O)[C@H]3O[C@@H]3O[C@@H](C)[C@H](O)[C@@H](O)[C@H]3O)cc2O)cc1O [NHDC, neohesperidin dihydrochalcone]
R1 = Variant EC50/WT EC50: 3.0
Max ΔF/F0: 0.29 ± 0.01
EC50 (read-out: EC50): 150 ± 19.6 µM

Molecule: COC(=O)[C@H](Cc1ccccc1)NC(=O)[C@H](CC(=O)O)NCCC(C)(C)C [Neotame]
R1 = Variant EC50/WT EC50: 1.5
Max ΔF/F0: 0.22 ± 0.01
EC50 (read-out: EC50): 1.82 ± 0.12 µM
